Activity calls are given as the source filed them. No cut-off for these calls is given here.
How the values were obtained:
[1] = system: HeLa; experiment: Induction of apoptosis in human HeLa cells assessed as early apoptotic cells at 1 uM incubated for 48 hrs by annexin V FITC and propidium iodide staining based flow cytometry analysis (reference value: 6.01%); format: functional
[2] = system: HeLa; experiment: Induction of apoptosis in human HeLa cells assessed as late apoptotic cells at 750 nM incubated for 24 hrs by annexin V FITC and propidium iodide staining based flow cytometry analysis (reference value: 0.05%); format: functional
[3] = system: HeLa; experiment: Induction of mitochondrial membrane potential alteration in human HeLa cells assessed as late apoptotic cells at 750 nM measured after 48 hrs by JC1 staining-based flow cytometry analysis (reference value: 0.009%); format: functional
[4] = system: HeLa; experiment: Induction of mitochondrial membrane potential alteration in human HeLa cells assessed as late apoptotic cells at 1 uM measured after 48 hrs by JC1 staining-based flow cytometry analysis (reference value: 0.009%); format: functional
[5] = system: HeLa; experiment: Induction of apoptosis in human HeLa cells assessed as necrotic cells at 1 uM incubated for 48 hrs by annexin V FITC and propidium iodide staining based flow cytometry analysis (reference value: 1.85 %); format: functional
[6] = system: HeLa; experiment: Induction of mitochondrial membrane potential alteration in human HeLa cells assessed as early apoptotic cells at 500 nM measured after 48 hrs by JC1 staining-based flow cytometry analysis (reference value: 9.07 %); format: functional
[7] = system: HeLa; experiment: Induction of apoptosis in human HeLa cells assessed as early apoptotic cells at 1 uM incubated for 72 hrs by annexin V FITC and propidium iodide staining based flow cytometry analysis (reference value: 2.36%); format: functional
[8] = system: HeLa; experiment: Induction of apoptosis in human HeLa cells assessed as late apoptotic cells at 100 nM incubated for 72 hrs by annexin V FITC and propidium iodide staining based flow cytometry analysis (reference value: 4.70%); format: functional
[9] = system: HUVEC; experiment: Antivascular activity against human HUVEC cells assessed as inhibition of tube formation at 500 nM incubated for 3 hrs by matrigel matrix based microscopic analysis; format: functional, cell-based
[10] = system: HeLa; experiment: Induction of apoptosis in human HeLa cells assessed as necrotic cells at 500 nM incubated for 72 hrs by annexin V FITC and propidium iodide staining based flow cytometry analysis (reference value: 2.88 %); format: functional
[11] = system: HeLa; experiment: Induction of apoptosis in human HeLa cells assessed as viable cells at 1 uM incubated for 48 hrs by annexin V FITC and propidium iodide staining based flow cytometry analysis (reference value: 85.5%); format: functional; conditions: read-out: Activity
[12] = system: HeLa; experiment: Induction of apoptosis in human HeLa cells assessed as early apoptotic cells at 100 nM incubated for 48 hrs by annexin V FITC and propidium iodide staining based flow cytometry analysis (reference value: 6.01%); format: functional
[13] = system: A549; experiment: cells; conditions: Homo sapiens, A549, 48 h
Description: Antiproliferative activity against human A549 cells assessed as reduction in cell viability incubated for 48 hrs by MTS assay

[14] = Antiproliferative activity against human A549/PTX cells assessed as reduction in cell viability measured for 48 hrs by MTS assay; format: functional, cell-based
[15] = system: HeLa; experiment: Induction of apoptosis in human HeLa cells assessed as late apoptotic cells at 1 uM incubated for 72 hrs by annexin V FITC and propidium iodide staining based flow cytometry analysis (reference value: 4.70%); format: functional
[16] = system: HeLa; experiment: Induction of apoptosis in human HeLa cells assessed as necrotic cells at 750 nM incubated for 24 hrs by annexin V FITC and propidium iodide staining based flow cytometry analysis (reference value: 1.14 %); format: functional
[17] = system: HeLa; experiment: Induction of apoptosis in human HeLa cells assessed as viable cells at 750 nM incubated for 72 hrs by annexin V FITC and propidium iodide staining based flow cytometry analysis (reference value: 90.1%); format: functional; conditions: read-out: Activity
[18] = system: HeLa; experiment: Induction of mitochondrial membrane potential alteration in human HeLa cells assessed as early apoptotic cells at 750 nM measured after 48 hrs by JC1 staining-based flow cytometry analysis (reference value: 9.07 %); format: functional
[19] = system: HeLa; experiment: Induction of apoptosis in human HeLa cells assessed as late apoptotic cells at 500 nM incubated for 48 hrs by annexin V FITC and propidium iodide staining based flow cytometry analysis (reference value: 8.87%); format: functional
[20] = system: HeLa; experiment: Induction of apoptosis in human HeLa cells assessed as late apoptotic cells at 500 nM incubated for 24 hrs by annexin V FITC and propidium iodide staining based flow cytometry analysis (reference value: 0.05%); format: functional
[21] = system: HeLa; experiment: Induction of mitochondrial membrane potential alteration in human HeLa cells assessed as early apoptotic cells at 100 nM measured after 48 hrs by JC1 staining-based flow cytometry analysis (reference value: 9.07%); format: functional
[22] = target: Tubulin (Homo sapiens) (UniProt P68371+Q9H4B7+P0DPH7+P68366+Q13509+Q71U36+P04350+Q3ZCM7+P07437+P68363+Q9BQE3+Q6PEY2+Q13885+Q9BVA1+Q9BUF5); experiment: Disruption of microtubule network in human HeLa cells at 100 to 500 nM incubated for 3 hrs by laser confocal microscopy analysis; format: cell-based; conditions: dose 100-500 nM, DDE = dose-dependent effect
[23] = system: HeLa; experiment: Induction of apoptosis in human HeLa cells assessed as viable cells at 1 uM incubated for 72 hrs by annexin V FITC and propidium iodide staining based flow cytometry analysis (reference value: 90.1%); format: functional; conditions: read-out: Activity
[24] = Metabolic stability in rat liver microsomes assessed as intrinsic clearance incubated for 5 mins in presence of NADPH by HPLC analysis; format: ADME, Microsome; conditions: read-out: CLH
[25] = system: HeLa; experiment: Induction of mitochondrial membrane potential alteration in human HeLa cells assessed as necrotic cells at 1 uM measured after 48 hrs by JC1 staining-based flow cytometry analysis (reference value: 0%); format: functional
[26] = system: HeLa; experiment: Induction of apoptosis in human HeLa cells assessed as viable cells at 500 nM incubated for 72 hrs by annexin V FITC and propidium iodide staining based flow cytometry analysis (reference value: 90.1%); format: functional; conditions: read-out: Activity
[27] = system: HeLa; experiment: Induction of apoptosis in human HeLa cells assessed as necrotic cells at 1 uM incubated for 24 hrs by annexin V FITC and propidium iodide staining based flow cytometry analysis (reference value: 1.14 %); format: functional
[28] = system: HeLa; experiment: Inhibition of cell migration in human HeLa cells at 10 to 1000 nM measured up to 24 hrs wound healing assay; format: functional, cell-based; conditions: dose 10-1000 nM, DDE = dose-dependent effect
[29] = system: HeLa; experiment: Induction of apoptosis in human HeLa cells assessed as necrotic cells at 100 nM incubated for 72 hrs by annexin V FITC and propidium iodide staining based flow cytometry analysis (reference value: 2.88 %); format: functional
[30] = system: HeLa; experiment: Induction of apoptosis in human HeLa cells assessed as necrotic cells at 500 nM incubated for 24 hrs by annexin V FITC and propidium iodide staining based flow cytometry analysis (reference value: 1.14 %); format: functional
[31] = system: HeLa; experiment: Induction of apoptosis in human HeLa cells assessed as viable cells at 500 nM incubated for 24 hrs by annexin V FITC and propidium iodide staining based flow cytometry analysis (reference value: 85.7%); format: functional; conditions: read-out: Activity
[32] = system: HeLa; experiment: Induction of apoptosis in human HeLa cells assessed as early apoptotic cells at 750 nM incubated for 24 hrs by annexin V FITC and propidium iodide staining based flow cytometry analysis (reference value: 0.12%); format: functional
[33] = system: HeLa; experiment: Induction of apoptosis in human HeLa cells assessed as necrotic cells at 1 uM incubated for 72 hrs by annexin V FITC and propidium iodide staining based flow cytometry analysis (reference value: 2.88 %); format: functional

For COc1cc(C(=O)c2nc(N3CCCC3)nc3ccsc23)cc(OC)c1OC, the Activity [1] was 2.09%, the Activity [2] was 7.06% and the Activity [3] was 0.077%. For the same compound, the Activity [4] was 0.053%, the Activity [5] was 46.3% and the Activity [6] was 33.1%. The Activity [7] was 5.47%, the Activity [8] was 8.57% and the Activity [9] was “Active”. For the same compound, the Activity [10] was 52.2%, the viability at 1 µM [11] was 0.77% and the Activity [12] was 2.8%. The IC50 [13] was 14 nM, the IC50 [14] was 24.4 nM and the Activity [15] was 24.7%. The Activity [16] was 3.09%, the viability at 0.75 µM [17] was 27.7% and the Activity [18] was 43.3%. It also gave an Activity [19] of 10.8%, an Activity [20] of 6.42% and an Activity [21] of 7.59%. For the same compound, the Activity [22] was “Dde”, the viability at 1 µM [23] was 27.9% and the microsomal CLint [24] was 40.8 µL/min/mg. The Activity [25] was 0.053%, the viability at 0.5 µM [26] was 32.6% and the Activity [27] was 4.52%. For the same compound, the inhibition [28] was “Dde”, the Activity [29] was 5.32% and the Activity [30] was 1.74%. For the same compound, the viability at 0.5 µM [31] was 80.1%, the Activity [32] was 8.59% and the Activity [33] was 41.9%.
